Assay results: US9120749B2, “Quinoline derivatives and MELK inhibitors containing the same” (ONCOTHERAPY SCIENCE, INC., priority 2010, dated 2015)
Counter-ions that a name gives are not always drawn. Like-named read-outs stand apart in the source and are kept apart here.

How the values were obtained:
22Rv1 cells = assay: Cell-based assay: anti-proliferative activity, Cell Counting Kit-8, 72 hours (22Rv1); settings: Homo sapiens, 22Rv1, 72 h
DU4475 cells = assay: Cell-based assay: anti-proliferative activity, Cell Counting Kit-8, 72 hours (DU4475); settings: Homo sapiens, DU-4475, 72 h
MELK = MELK (Homo sapiens, UniProt Q14680); assay: Kinase assay: MELK activity, phosphorylation of FITC-labeled histone H3 peptide measured by IMAP fluorescence polarization; type: biochemical; settings: read-out: IC50 (μM) (kinase assay)
Sequence of MELK (Q14680 whole entry, looked up): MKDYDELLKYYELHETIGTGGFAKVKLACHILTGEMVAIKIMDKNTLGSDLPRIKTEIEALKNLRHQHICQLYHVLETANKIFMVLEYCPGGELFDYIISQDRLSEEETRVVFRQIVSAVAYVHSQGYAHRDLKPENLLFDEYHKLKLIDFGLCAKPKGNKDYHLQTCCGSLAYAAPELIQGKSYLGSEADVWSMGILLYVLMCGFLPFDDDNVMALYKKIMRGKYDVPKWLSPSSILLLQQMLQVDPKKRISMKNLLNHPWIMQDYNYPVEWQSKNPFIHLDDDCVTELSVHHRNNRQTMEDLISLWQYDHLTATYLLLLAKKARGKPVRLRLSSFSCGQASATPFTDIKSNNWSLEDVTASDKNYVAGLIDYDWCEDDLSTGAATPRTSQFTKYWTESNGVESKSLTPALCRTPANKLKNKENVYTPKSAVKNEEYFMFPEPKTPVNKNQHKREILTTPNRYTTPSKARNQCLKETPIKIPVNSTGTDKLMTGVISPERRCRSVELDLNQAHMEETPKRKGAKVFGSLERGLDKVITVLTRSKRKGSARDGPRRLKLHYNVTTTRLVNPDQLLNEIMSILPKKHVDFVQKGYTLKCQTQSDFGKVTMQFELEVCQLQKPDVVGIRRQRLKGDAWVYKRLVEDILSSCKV
How it was run: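 Substrate is FITC-labeled histone H3 peptide. Compounds come from a 12.5 mM DMSO stock, diluted so assay DMSO is 1%. The stop step adds threefold-volume progressive binding solution, followed by 0.5 h at room temperature and an FP read.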

T47D cells = assay: Cell-based assay: anti-proliferative activity, Cell Counting Kit-8, 72 hours (T47D); settings: Homo sapiens, T47D, 72 h
How it was run: (§1)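 IC50 values come from CCK-8 growth measurements taken 72 hours post-treatment of plated cells with test compounds. Expression of MELK across the panel was assessed through immunoblot of unfractionated lysates.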

HT-1197 cells = assay: Cell-based assay: anti-proliferative activity, Cell Counting Kit-8, 72 hours (HT-1197, negative control without MELK expression); settings: Homo sapiens, HT1197, 72 h, HT1197 cells (negative control, no MELK expression), 72 hours
How it was run: as §1

A549 cells = assay: Cell-based assay: anti-proliferative activity, Cell Counting Kit-8, 72 hours (A549); settings: Homo sapiens, A549, 72 h, 72 hours
How it was run: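 Cell Counting Kit-8 read-out of A549 growth after 72 hours of inhibitor exposure, cells plated in 96-well format. Values reported as IC50.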

[1] = MELK kinase assay, IMAP fluorescence polarization, 50 micro-M ATP

| SMILES | IC50 (22Rv1 cells) [µM] | IC50 (DU4475 cells) [µM] | IC50 (MELK) [µM] | IC50 (T47D cells) [µM] | IC50 (HT-1197 cells) [µM] | IC50 (A549 cells) [µM] | IC50 (MELK; [1]) [µM] |
| --- | --- | --- | --- | --- | --- | --- | --- |
| COc1cc(-c2ccc3ncc(C(C)=O)c(N[C@H]4CC[C@H](CN5CCC(N)C5)CC4)c3c2)cc(Cl)c1O (stereo partly drawn) [Example 780, 1-(4-(1R,4R)-4-((3-aminopyrrolidin-1-yl)methyl)cyclohexylamino)-6-(3-chloro-4-hydroxy-5-methoxyphenyl)quinolin-3-yl)ethanone hydrochloride] | 0.67 | 1.5 | 0.002 | 0.41 | 3.2 | 0.62 | – |
| CC(=O)c1cnc2ccc(-c3cc(F)c(O)c(Cl)c3)cc2c1Nc1cnn(C2CCN(C)CC2)c1 [Example 805, 1-(6-(3-chloro-5-fluoro-4-hydroxyphenyl)-4-(1-(1-methylpiperidin-4-yl)-1H-pyrazol-4-ylamino)quinolin-3-yl)ethanone hydrochloride] | 0.32 | 0.11 | 0.0028 | 0.17 | 2.4 | 0.34 | – |
| CC(=O)c1cnc2ccc(-c3cc(Cl)c(O)c(Cl)c3)cc2c1Nc1cccc(CCN2CCN(C)CC2)c1 [Example 831, 1-(6-(3,5-dichloro-4-hydroxyphenyl)-4-(3-(2-(4-methylpiperazin-1-yl)ethyl)phenylamino)quinolin-3-yl)ethanone] | 0.83 | 0.12 | – | 1.1 | 11 | 0.32 | 0.0054 |
| CC(=O)c1cnc2ccc(-c3cc(Cl)c(O)c(Cl)c3)cc2c1NC1CCCN(CCN(C)C)C1 (centres unmarked) [Example 850, 1-(6-(3,5-dichloro-4-hydroxyphenyl)-4-(1-(2-(dimethylamino)ethyl)piperidin-3-ylamino)quinolin-3-yl)ethanone] | 1.2 | 0.32 | – | 1.1 | 4 | 0.89 | 0.0019 |
| COc1cc(-c2ccc3ncc(C(C)=O)c(N[C@H]4CC[C@H](CN5CCN(C)CC5)CC4)c3c2)cc(Cl)c1O [Example 787, 1-(6-(3-chloro-4-hydroxy-5-methoxyphenyl)-4-(1R,4R)-4-((4-methylpiperazin-1-yl)methyl)cyclohexylamino)quinolin-3-yl)ethanone hydrochloride] | 0.72 | 2.7 | 0.0058 | 0.48 | 5.2 | 0.44 | – |
| CC(=O)c1cnc2ccc(-c3cc(F)c(O)c(Cl)c3)cc2c1N[C@H]1CCC[C@@H](CN2CCN(C)CC2)C1 [Example 832, 1-(6-(3-chloro-5-fluoro-4-hydroxyphenyl)-4-((1S,3R)-3-((4-methylpiperazin-1-yl)methyl)cyclohexylamino)quinolin-3-yl)ethanone hydrochloride] | 0.44 | 0.24 | – | 0.17 | 0.79 | 0.26 | 0.009 |
| CC(=O)c1cnc2ccc(-c3cc(F)c(O)c(Cl)c3)cc2c1Nc1cccc(CCN2CCN(C)CC2)c1 [Example 830, 1-(6-(3-chloro-5-fluoro-4-hydroxyphenyl)-4-(3-(2-(4-methylpiperazin-1-yl)ethyl)phenylamino)quinolin-3-yl)ethanone] | 1.3 | 0.26 | – | 1.5 | 15 | 0.73 | 0.019 |
| CCN(CC)C[C@H]1CC[C@H](Nc2c(C(C)=O)cnc3ccc(-c4cc(Cl)c(O)c(Cl)c4)cc23)CC1 [Example 790] | 0.14 | 0.098 | 0.0018 | 0.1 | 4.2 | 0.14 | – |
| CN(C)CCNc1ccc(Nc2c(C(=O)C3CC3)cnc3ccc(-c4cc(F)c(O)c(Cl)c4)cc23)cn1 [Example 776, (6-(3-chloro-5-fluoro-4-hydroxyphenyl)-4-(6-(2-(dimethylamino)ethylamino)pyridin-3-ylamino)quinolin-3-yl)(cyclopropyl)methanone] | 0.15 | 0.038 | – | 0.073 | 1.2 | 0.08 | – |
